# Earlier results in US20090148509A1, “ENCAPSULATION AND DEAGGREGATION OF POLYENE ANTIBIOTICS USING POLY(ETHYLENE GLYCOL)-PHOSPHOLIPID MICELLES” (WISCONSIN ALUMNI RESEARCH FOUNDATION, priority 2002, published 2009).
# Tests used:
# [1] = surfactant:AmB
Compound,critical aggregation concentration of AmB in water,molar ratio required to efficiently deaggregate AmB [1]
"C[C@@H]1[C@H](O)[C@@H](C)/C=C/C=C/C=C/C=C/C=C/C=C/C=C/[C@H](O[C@@H]2O[C@H](C)[C@@H](O)[C@H](N)[C@@H]2O)C[C@@H]2O[C@](O)(C[C@@H](O)C[C@@H](O)[C@H](O)CC[C@@H](O)C[C@@H](O)CC(=O)O[C@H]1C)C[C@H](O)[C@H]2C(=O)O [AmB, Amphotericin B]",about 1.0 μg/ml,–
sodium deoxycholate,–,greater than 40
